Data from ChEMBL document CHEMBL1126869, “Conformational analysis of a highly potent dicyclic gonadotropin-releasing hormone antagonist by nuclear magnetic resonance and molecular dynamics” (1993).
Bridge positions count the residues as written; N and C are the ends. Square brackets hold non-standard residues; d marks the D form. Peptide text beside a SMILES is read from it. dPhe(4-Cl) = N[C@H](Cc1ccc(Cl)cc1)C(=O)O; d2Nal = N[C@H](Cc1ccc2ccccc2c1)C(=O)O; Dap = NC[C@H](N)C(=O)O

Experiment: Biological potency in the anti-ovulatory assay in rat (dosage rats ovulating/total rats)
Format: functional

Row | Compound | Dosage
1 | CC(=O)N1CCC[C@H]1C(=O)N[C@H](Cc1ccc(F)cc1)C(=O)N[C@H](Cc1c[nH]c2ccccc12)C(=O)N[C@H]1CC(=O)NC[C@@H](C(N)=O)NC(=O)[C@@H]2CCCN2C(=O)[C@H](CCCN=C(N)N)NC(=O)[C@H](CC(C)C)NC(=O)[C@@H](Cc2ccc3ccccc3c2)NC(=O)[C@H](Cc2ccc(O)cc2)NC1=O | 10 µg
2 | CC(C)C[C@@H]1C(=O)N[C@@H](CCCN=C(N)N)C(=O)N2CCC[C@@H]2C(=O)NCCC(=O)N2CCC[C@@H]2C(=O)N[C@@H](Cc2ccc(Cl)cc2)C(=O)N[C@H](Cc2c[nH]c3ccccc23)C(=O)N[C@@H](CO)C(=O)N[C@H](Cc2ccc(O)cc2)C(=O)N[C@@H](Cc2c[nH]c3ccccc23)C(=O)N1C | 1000 µg
3 | CC(=O)N[C@H](Cc1ccc2ccccc2c1)C(=O)N[C@H](Cc1ccc(Cl)cc1)C(=O)N[C@H](Cc1c[nH]c2ccccc12)C(=O)N[C@H]1CC(=O)NC[C@@H](C(N)=O)NC(=O)[C@@H]2CCCN2C(=O)[C@@H]2CCCCNC(=O)CC[C@H](NC1=O)C(=O)N[C@H](CCCN=C(N)N)C(=O)N[C@@H](CC(C)C)C(=O)N2 (Ac-[d2Nal][dPhe(4-Cl)][dW]DE[dR]LKP[Dap]-NH2; lactam 4-10, 5-8) | 5 µg
